Assay results reported in article PMC6957264 (Bioconjugate chemistry, 2017).

What was measured:
isolated PKCδ C1b domain = conditions: read-out: Kd for the isolated PKCδ C1b domain; cited from earlier work
PKCδ C1b domain = PKCδ C1b domain (Mus musculus, UniProt P28867); assay: [3H]PDBu competitive binding assay, isolated C1b domain of PKCδ; conditions: read-out: Kd for the binding of [3H]PDBu to the PKCδ C1b
isolated PKCδ C1a domain = conditions: cited from earlier work
[1] = system: EGFP-tagged PKCδ in CHO cells; assay: Translocation of EGFP-tagged PKCδ in CHO cells, confocal microscopy; format: cell-based, Chinese hamster; conditions: 10 μM compound, images at 0, 5 and 10 min
[2] = system: EGFP-tagged PKCε in LNCaP cells; assay: Translocation of GFP-tagged PKCε in LNCaP cells, confocal microscopy; format: cell-based, human; conditions: 1 μM, single experiment
[3] = system: C1a and C1b domains of PKCε; conditions: C1a vs C1b; cited from earlier work

PKCδ C1b domain, sequence (P28867 231-280 limits assumed): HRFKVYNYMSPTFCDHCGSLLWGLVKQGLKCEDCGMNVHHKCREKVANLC

Row | Molecule | Kd (isolated PKCδ C1b domain) [nM] | Kd (PKCδ C1b domain) [nM] | difference in Kd between isolated PKCδ C1a and C1b domains (isolated PKCδ C1a domain; C1a vs C1b, isolated domains) [fold] | Kd (isolated PKCδ C1a domain; read-out: Kd for the isolated PKCδ C1a domain) [nM] | translocation of EGFP-PKCδ from cytosol to plasma membranes [1] | plasma membrane translocation of PKCε [2] | difference in affinity between the C1a and C1b domains of PKCε [3] [fold]
1 | CCCC(=O)O[C@@H]1[C@@H](C)[C@@]2(O)[C@@H](C=C(CO)C[C@]3(O)C(=O)C(C)=C[C@@H]23)[C@@H]2C(C)(C)[C@]12OC(=O)CCC [PDBu, phorbol 12,13-dibutyrate] | 0.33 | 0.19 | 6 | 2 | not observed more clearly than those by monomeric and dimeric DAG–lactones |  | 
2 | CCCCCCCCCCCCCC(=O)O[C@@H]1[C@@H](C)[C@@]2(O)[C@@H](C=C(CO)C[C@]3(O)C(=O)C(C)=C[C@@H]23)[C@@H]2C(C)(C)[C@]12OC(C)=O [PMA, phorbol 12-myristate 13-acetate] |  |  |  |  |  | dramatic plasma membrane translocation | ≤ 3
3 | sn-1,2-diacylglycerol [DAG] |  |  |  |  |  |  | ≤ 3
